# From ChEMBL document CHEMBL1158471, “Flaviviral protease inhibitors identified by fragment-based library docking into a structure generated by molecular dynamics” (J Med Chem, 2009)
# Where a SMILES comes first, the peptide text is derived from it. [ ]: non-standard residue; d: D form. The star is where a group is joined. Nle = CCCC[C@H](N)C(=O)O; Bz = O=C(c1ccccc1)*
# Tests used:
# Genome polyprotein [1] = target: T1, Genome polyprotein (West Nile virus, UniProt P06935); experiment: Inhibition of WNV NS2B-NS3 protease
# Genome polyprotein [2] = target: T1, Genome polyprotein; experiment: Binding affinity to WNV NS2B(K96A)-NS3 protease measured as change of 15N chemical shift of Val100 by NMR spectroscopy
# Genome polyprotein [3] = target: T1, Genome polyprotein; experiment: Binding affinity to WNV NS2B(K96A)-NS3 protease measured as change of 15N chemical shift of Ala36 by NMR spectroscopy
# Genome polyprotein [4] = target: T1, Genome polyprotein; experiment: Inhibition of WNV NS2B-NS3 protease by tryptophan fluorescence assay
# Genome polyprotein [5] = target: T1, Genome polyprotein; experiment: Binding affinity to WNV NS2B(K96A)-NS3 protease measured as change of 1H chemical shift of Glu101 by NMR spectroscopy
# Genome polyprotein [6] = target: T1, Genome polyprotein; experiment: Binding affinity to WNV NS2B(K96A)-NS3 protease measured as change of 15N chemical shift of Ser137 by NMR spectroscopy
# Genome polyprotein [7] = target: T1, Genome polyprotein; experiment: Inhibition of WNV NS2B-NS3 protease by enzymatic assay
# Genome polyprotein [8] = target: T1, Genome polyprotein; experiment: Binding affinity to WNV NS2B-NS3 protease measured as change of 1H chemical shift of Thr52 and Glu101 by NMR spectroscopy
smiles,measurement,setting,value
Cc1ccc(C(NN=C(N)N)[PH](=O)O)cc1 (stereo not given),Ki,Genome polyprotein [1],13 µM
NC(N)=N/N=C\c1ccc(/C=N\N=C(N)N)cc1,Ki,Genome polyprotein [1],35 µM
NCc1ccc(Nc2nnc(Nc3ccc(C4=NCCN4)cc3)c3ccccc23)cc1,IC50,Genome polyprotein [1],10.6 µM
N=C(N)c1cccc(NC(=O)Nc2cccc(C(=N)N)c2)c1 [AMICARBALIDE],Kd,Genome polyprotein [2],90 µM
same,Kd,Genome polyprotein [3],90 µM
same,Kd,Genome polyprotein [4],15 µM
same,Kd,Genome polyprotein [5],70 µM
same,Kd,Genome polyprotein [6],90 µM
same,IC50,Genome polyprotein [7],2.8 µM
CC1CNC(c2ccc(Nc3nnc(Nc4ccc(C5=NC(C)CN5)cc4)c4ccccc34)cc2)=N1 (stereo not given),IC50,Genome polyprotein [1],24.5 µM
c1ccc2c(Nc3ccc4c(c3)CNCC4)nnc(Nc3ccc(C4=NCCN4)cc3)c2c1,IC50,Genome polyprotein [1],5.2 µM
CCCC[C@H](NC(=O)c1ccccc1)C(=O)N[C@@H](CCCCN)C(=O)N[C@@H](CCCNC(=N)N)C(=O)N[C@H](C=O)CCCNC(=N)N (Bz-[Nle]KRR-aldehyde),IC50,Genome polyprotein [1],4.1 µM
Cc1cc(CSC(=N)N)c(C)cc1CSC(=N)N,Kd,Genome polyprotein [8],40 µM
N=C(N)Nc1ccc(C(=O)Oc2ccc([N+](=O)[O-])cc2)cc1,Kd,Genome polyprotein [4],16 µM
same,IC50,Genome polyprotein [7],34.2 µM
